Experimental data from EP0598753B1, “MANGANESE COMPLEXES OF NITROGEN-CONTAINING MACROCYCLIC LIGANDS EFFECTIVE AS CATALYSTS FOR DISMUTATING SUPEROXIDE” (MONSANTO COMPANY, priority 1991, dated 1993).

Assays:
[1] = system: human aortic endothelial cells (HAE cells); assay: Neutrophil-mediated cytotoxicity assay (51Cr-release); conditions: 50% inhibition of specific cytotoxicity; human neutrophil-mediated killing of human aortic endothelial cells
Source text: (§1) Human peripheral blood neutrophils were isolated from fresh venous blood of healthy volunteers. EDTA anticoagulated blood was separated using a single step density centrifugation (Polymorphprep; Nycomed Pharma, Oslo, Norway) followed by several washes in Hank's balanced salt solution supplemented with 0.5% BSA (Bovine Serum Albumin) (HBSSB) and the hypertonic lysis of erythrocytes. Neutrophils were counted via Coulter electronic particle counter and resuspended in HBSSB supplemented with 25% Endothelial Basal Medium (EBM), (Clonetics Corporation, San Diego, CA) at a concentration of 5 x 10^6 polymorphonuclear leukocytes (PMN)/ml.
(§2) The cytotoxic effects of stimulated neutrophils on endothelial cells were determined using a ^51Cr-release assay as previously described (Moldow, C.F., and Jacob, H.S. (1984) Methods Enzymol. 105, 378-385). Confluent monolayers of human aortic endothelial cells (HAE cells; Clonetics) grown in 96-well culture plates were prelabeled with 1 µCi/well ^51Cr (Na2 ^51Cr2O4, New England Nuclear, Boston, MA). The cells were incubated for 18 h at 37°C, then cytokine-activated with 10 Units/well human recombinant tumor necrosis factor-a (hrTNF-α; Monsanto Company, St. Louis, MO) for 4 h at 37°C. The cells were washed twice to remove unincorporated radioactivity with Hank's balanced salt solution supplemented with 0.5% BSA. To assess inhibition of PMN-mediated cytotoxicity, manganese(II) complexes at various doses (0-300 µM) were added to five replicate wells/dose of HAE cells immediately prior to the addition of PMN. Suspensions of PMN in HBSSB supplemented with 25% Endothelial Basal Medium were added to the wells at a neutrophil to endothelial cell ratio of 50:1. The PMN were allowed to adhere for 15 minutes at 37°C, primed with 125 Units/well hrTNF-α (Berkow, R.L., Wang, D., Larrick, J.W., Dodson, R.W., and Howard, T.H. (1987) J. Immunol. 139, 3783-3791; Varani, J.; Bendelow, M. J. Sealey, D. E.; Kunkel, S. L.; Gannon, D. E.; Ryan, U.S.; and Ward, P.A. (1987) Lab. Invest., 59, 292-295) for 10 minutes, and stimulated with human recombinant complement component C5a (Sigma Chemical, St. Louis, MO). […] After an additional incubation of 4 hours at 37°C, 200 µl of the 250 µl reaction volume (soluble fraction) was removed to a tube for counting. The cells were washed twice with 200 µl HBSSB (nonadherent fraction) and the washes pooled with the soluble fraction. The adherent fraction was collected by lysing the HAE cells with 200 µl 1N NaOH for 30 minutes and removing to separate tubes. Both fractions were analyzed by gamma scintillation spectrometry. The percentage cytotoxicity was calculated by the following formula: % Cytotoxicity =(cpm (soluble + nonadherent fractions))/(cpm (soluble + nonadherent + adherent fractions))x 100 [formula] Specific cytotoxicity reflects the difference between ^51Cr-release induced by stimulated PMN and unstimulated PMN. The IC50 values for the manganese(II) complexes for protection against neutrophil-mediated cytotoxicity were determined from a computer-driven logistic regression equation from a plot of % specific cytotoxicity versus the concentration of the manganese(II) complex.

[2] = system: rat aortic rings; assay: Rat aortic ring assay
Method: The aortic rings were prepared using a Furchgott procedure (described in Furchgott, R.F., "Role of Endothelium in Response of Vascular Smooth Muscle", Circ. Res. 53: 557-573, 1983) with changes in tension recorded. In all preparations, initial tension (1.5 grams) was produced with 30 mM KCl.

[3] = system: colonic myeloperoxidase activity; assay: Mouse acetic acid-induced colitis model (colonic myeloperoxidase); type: in vivo; conditions: 30 mg/kg dose, intracolonic, 30 minutes before acetic acid, tissue after 24 hours
Method: Mouse colitis model. […] Mice were lightly anesthetized. A solution of 3% (v/v) aqueous acetic acid was instilled intracolonically via a flexible polyethylene tube. After 24 hours, the animals were killed and colonic tissue samples were obtained. Tissue samples were assessed biochemically for the neutrophil marker enzyme, myeloperoxidase (MPO). The colonic tissue samples were minced, homogenized in detergent, and sonicated. After centrifugation, enzyme activities were assayed spectrophotometrically by determining the decomposition of peroxide using o-dianisidine as the hydrogen donor. Data was obtained as the absorbance (460 nm) at 20 minutes. Test agents were given intracolonically at a dose of 30 mg/kg body weight 30 minutes before acetic acid instillation as a sonicated suspension in 0.5% aqueous methyl cellulose. Vehicle was given to appropriate acetic acid control animals. Normal tissue was obtained from control animals which received only vehicle. Colonic myeloperoxidase activities were determined as units/g wet weight of tissue. Reduction of colonic myeloperoxidase activity by test agents in acetic acid-treated mice is expressed as % inhibition (Table 2). Colonic myeloperoxidase activity correlated with the degree of tissue inflammation as assessed by visual and histological analysis.

[4] = system: conscious rats; assay: Rat hemodynamic model (mean blood pressure, conscious rats); type: in vivo, male Sprague-Dawley rats
Method: Catheters were inserted into the femoral vein, femoral artery and bladder of male Sprague-Dawley rats (250-325 grams total body weight) anesthetized with ether. The rats were then placed in individual restraining cages and allowed to regain consciousness. Blood pressure was measured by a standard pressure transducer and physiograph. Increasing doses of the manganese(II) complex of Example 1 (prepared in an aqueous solution) were given as single bolus injections. The results of the tests can be found in Figure 1. The blood pressure values represent the mean arterial blood pressure from the mean values of 3 rats. […] Thus, the potentiation by the complex of Example 1 of the vasorelaxant effects of NO is consistent with the proposed mechanism of action as an SOD mimic.

[5] = system: human aortic endothelial cells (HAE cells)
Source text: as §1, §2

[6] = system: rat lung fibroblast cells; assay: Nitric oxide: rat lung fibroblast cGMP reporter assay; type: cell-based; conditions: for cGMP: mean
Method: The assay is described in Ishii, I., Sheng, H., Warner, T.D., Förstermann, V. and Murad, F., Am. J. Physiol., 261 (Heart Circ. Physiol. 30); H598-H603, 1991 modified in that the nitric oxide synthase (NOS) is added directly to the cells. Rat lung fibroblast cells were grown to confluence on a 48-well tissue culture plate containing Earle's salts medium. The medium is removed and the cells washed twice with minimal essential medium buffered with Earle's salts. A nitric oxide (NO) generating system consisting of enzyme (NOS), nicotinamide adenine dinucleotide phosphate (NADPH), arginine and required cofactors, such as tetrahydrobiopterin and flavin adenine dinucleotide (FAD) is subsequently added to each well. In cases where the complex of Example 1 was added, addition occurred with the NO generating system. After five minutes of incubation, each reaction is terminated, cellular cGMP extracted and measured by radioimmunoassay.
The capacity of the rat lung fibroblast cells to respond to NO was confirmed by adding sodium nitroprusside (SNP), a compound which spontaneously degrades to NO and results in increased cGMP levels. Next, crude NOS (prepared from endotoxin-treated RAW 264.7 cells) was added to the rat lung fibroblast cells to determine their response to enzymatically generated NO. A dose-dependent increase in cGMP with increasing amounts of enzyme was obtained. Superoxide dismutase (SOD) addition augmented cellular cGMP levels.

[7] = target: T1, nitric oxide synthase (NOS) (Mus musculus, UniProt P29477); assay: NOS activity measured by citrulline production; type: biochemical
T1 construct: crude NOS (prepared from endotoxin-treated RAW 264.7 cells); endogenous in cells; host or cells: endotoxin-treated RAW 264.7 cells (crude enzyme preparation)
T1 sequence (P29477 1-1144): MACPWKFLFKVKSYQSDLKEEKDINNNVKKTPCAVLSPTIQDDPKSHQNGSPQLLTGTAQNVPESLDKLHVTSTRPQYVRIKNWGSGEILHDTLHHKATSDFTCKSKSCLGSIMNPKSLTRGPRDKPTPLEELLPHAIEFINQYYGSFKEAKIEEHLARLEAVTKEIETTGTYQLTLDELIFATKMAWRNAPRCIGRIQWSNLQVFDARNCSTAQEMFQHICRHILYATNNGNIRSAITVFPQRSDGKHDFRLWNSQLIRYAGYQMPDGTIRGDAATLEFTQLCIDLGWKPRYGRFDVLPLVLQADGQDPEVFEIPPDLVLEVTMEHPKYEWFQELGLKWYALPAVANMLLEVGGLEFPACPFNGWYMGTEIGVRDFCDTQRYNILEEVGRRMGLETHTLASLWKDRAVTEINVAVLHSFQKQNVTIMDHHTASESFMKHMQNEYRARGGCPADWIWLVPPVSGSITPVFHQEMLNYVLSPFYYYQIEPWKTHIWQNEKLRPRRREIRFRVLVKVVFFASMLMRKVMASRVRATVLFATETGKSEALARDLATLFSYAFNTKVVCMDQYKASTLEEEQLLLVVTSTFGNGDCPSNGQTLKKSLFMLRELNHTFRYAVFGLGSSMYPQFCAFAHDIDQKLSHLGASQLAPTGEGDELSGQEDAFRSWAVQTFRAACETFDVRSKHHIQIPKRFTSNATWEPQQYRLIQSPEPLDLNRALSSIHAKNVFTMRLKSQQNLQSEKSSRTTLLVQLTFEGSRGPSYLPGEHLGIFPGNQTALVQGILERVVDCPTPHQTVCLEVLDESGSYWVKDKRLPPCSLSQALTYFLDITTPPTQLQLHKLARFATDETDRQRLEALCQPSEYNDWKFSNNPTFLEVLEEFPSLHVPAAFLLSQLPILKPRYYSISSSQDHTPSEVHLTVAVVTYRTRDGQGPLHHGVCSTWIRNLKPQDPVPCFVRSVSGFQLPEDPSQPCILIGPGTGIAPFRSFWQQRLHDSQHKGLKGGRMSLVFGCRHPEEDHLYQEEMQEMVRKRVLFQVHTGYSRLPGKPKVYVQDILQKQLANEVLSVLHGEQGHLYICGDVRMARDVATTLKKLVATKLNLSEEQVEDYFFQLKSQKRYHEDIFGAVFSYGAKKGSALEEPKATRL

[8] = Stopped-flow kinetic analysis of catalytic dismutation of superoxide; type: biochemical; conditions: catalytic rate constant for dismutation of superoxide, pH 8.1 and 21°C
Source text: Stopped-flow kinetic analysis is an accurate and direct method for quantitatively monitoring the decay rates of superoxide in water.
For the attainment of consistent and accurate measurements all reagents were biologically clean and metal-free. To achieve this, all buffers (Calbiochem) were biological grade, metal-free buffers and were handled with utensils which had been washed first with 0.1 N HCl, followed by purified water, followed by a rinse in a 10^-4 M EDTA bath at pH 8, followed by a rinse with purified water and dried at 65°C for several hours. Dry DMSO solutions of potassium superoxide (Aldrich) were prepared under a dry, inert atmosphere of argon in a Vacuum Atmospheres dry glovebox using dried glassware. The DMSO solutions were prepared immediately before every stopped-flow experiment. A mortar and pestle were used to grind the yellow solid potassium superoxide (~100 mg). The powder was then ground with a few drops of DMSO and the slurry transferred to a flask containing an additional 25 ml of DMSO. The resultant slurry was stirred for 1/2 h and then filtered. […] These solutions were transferred to a glovebag under nitrogen in sealed vials prior to loading the syringe under nitrogen. It should be noted that the DMSO/superoxide solutions are extremely sensitive to water, heat, air, and extraneous metals. A fresh, pure solution has a very slight yellowish tint.
Water for buffer solutions was delivered from an in-house deionized water system to a Barnstead Nanopure Ultrapure Series 550 water system and then double distilled, first from alkaline potassium permanganate and then from a dilute EDTA solution. For example, a solution containing 1.0 g of potassium permanganate, 2 liters of water and additional sodium hydroxide necessary to bring the pH to 9.0 were added to a […] fitted with a solvent distillation head. This distillation will oxidize any trace of organic compounds in the water. The final distillation was carried out under nitrogen in a 2.5-liter flask containing 1500 ml of water from the first still and 1.0 x 10^-6M EDTA. This step will remove remaining trace metals from the ultrapure water. To prevent EDTA mist from volatilizing over the reflux arm to the still head, the 40-cm vertical arm was packed with glass beads and wrapped with insulation. This system produces deoxygenated water that can be measured to have a conductivity of less than 2.0 nanomhos/cm^2.
The stopped-flow spectrometer system was designed and manufactured by Kinetic Instruments Inc. (Ann Arbor, MI) and was interfaced to a MAC IICX personal computer. The software for the stopped-flow analysis was provided by Kinetics Instrument Inc. and was written in QuickBasic with MacAdios drivers. Typical injector volumes (0.10 ml of buffer and 0.006 ml of DMSO) were calibrated so that a large excess of water over the DMSO solution were mixed together. […] Aqueous solutions to be mixed with the DMSO solution of superoxide were prepared using 80 mM concentrations of the Hepes buffer, pH 8.1 (free acid + Na form). One of the reservoir syringes was filled with 5 ml of the DMSO solution while the other was filled with 5 ml of the aqueous buffer solution. The entire injection block, mixer, and spectrometer cell were immersed in a thermostatted circulating water bath with a temperature of 21.0 ± 0.5°C.
Prior to initiating data collection for a superoxide decay, a baseline average was obtained by injecting several shots of the buffer and DMSO solutions into the mixing chamber. These shots were averaged and stored as the baseline.

Row | Compound | IC50 [1] [µM] | % Inhibition of Colonic Myeloperoxidase Activity [3] [%] | protection against human neutrophil-mediated cytotoxicity, in words [5] | kCAT [8] [M⁻¹ s⁻¹] | also measured
1 | C1CNCCNCCNCCNCCN1.[Cl-].[Cl-].[Mn+2] [Example 1, [Manganese(II)dichloro(1,4,7,10,13-Pentaazacyclopentadecane)]] | 25 | 69 | protective against human neutrophil-mediated cytotoxicity | – | effect on the relaxation response to acetylcholine, in words ([2]; complex 0.5 and 5.0 micromolar, acetylcholine 0.1 and 1.0 micromolar): additive effect; effect on the relaxation response to sodium nitroprusside, in words ([2]; complex 0.5 and 5.0 micromolar, sodium nitroprusside 0.001 to 10 micromolar): additive effect; maximum relaxation ([2]; endothelium and dose-dependent from 0.05 to 300 micromolar, 30 mM KCl): 45%; augmentation of cellular cGMP levels ([2]; rat aortic rings, 5 micromolar for 1 min.): 2.5 fold; effect on mean blood pressure, in words ([4]; increasing doses as single bolus injections, aqueous solution, data in Figure 1): blood pressure drop; duration of the blood pressure drop ([4]; single bolus injections): 3 to 5 min; cGMP ([6]; NOS + complex 0.0001mM): 19.3 fmol/well/10; cGMP ([6]; NOS + complex 0.001mM): 21.7 fmol/well/10; cGMP ([6]; NOS + complex 0.01mM): 43.7 fmol/well/10; cGMP ([6]; NOS + complex 0.10mM): 54.7 fmol/well/10; cGMP ([6]; NOS + complex 1.0mM): 60.3 fmol/well/10; cGMP ([6]; complex alone, 1mM, no NOS): 11.7 fmol/well/10; basal levels of cGMP, in words ([6]; complex alone, 1 millimolar): not increased; cGMP levels, in words ([6]; with NO generating system, 1 micromolar to 1 millimolar): dose-dependent increase in cGMP levels; NOS activity as measured by citrulline production [7]: does not increase NOS activity
2 | CC1CNCCNCCNCCNCCN1.[Cl-].[Cl-].[Mn+2] (centres unmarked) [Example 2, [Manganese(II)dichloro(2-Methyl-1,4,7,10,13-pentaazacyclopentadecane)]] | – | 47 | protective against human neutrophil-mediated cytotoxicity | 2.67e+07 | –
3 | CC(C)CC1CNCCNCCNCCNCCN1.[Cl-].[Cl-].[Mn+2] (centres unmarked) [Example 5, [Manganese(II)dichloro(2-(2-Methylpropyl)-1,4,7,10,13-pentaazacyclopentadecane)]] | – | 70 | protective against human neutrophil-mediated cytotoxicity | – | –
4 | C1CCC(CC2CNCCNCCNCCNCCN2)CC1.[Cl-].[Cl-].[Mn+2] (centres unmarked) [Example 7, [Manganese(II)dichloro(2-Cyclohexylmethyl-1,4,7,10,13-pentaazacyclopentadecane)]] | 22 | 77 | protective against human neutrophil-mediated cytotoxicity | – | –
5 | C1CNCCNCCNCCNCCN1.F[P-](F)(F)(F)(F)F.[Cl][Mn+] [Example 27, [Manganese(II)chloro(1,4,7,10,13-Pentaazacyclopentadecane)]Hexafluorophosphate] | 26 | – | protective against human neutrophil-mediated cytotoxicity | 2.4e+07 | –
6 | [Manganese(II)diacetate(1,4,7,10,13-Pentaazacyclopentadecane)] [Example 8] | – | 32 | protective against human neutrophil-mediated cytotoxicity | – | –
7 | [Manganese(II)dichloro((S)-2-Methyl-1,4,7,10,13-pentaazacyclopentadecane)] [Example 3] | 37 | 42 | protective against human neutrophil-mediated cytotoxicity | 2.39e+07 | –
